Read-outs that look alike come from different tables or passages of the source.
How the values were obtained:
[1] = tested on: blood glucose concentration; assay: Determination of glucose in the blood after a single oral administration (fasting, metabolically healthy rats); format: in vivo, rat (young male Sprague-Dawley); details: Rattus norvegicus
Experimental: Table I reflects investigations of the effect of representative compounds according to the invention on the blood glucose concentration of fasting, metabolically healthy rats which are observed for 6 hours after a single oral administration of from 0.01 to 0.6 mmol of substance/kg of body weight.
1. Determination of glucose in the blood after a single oral administration-
Young male Sprague-Dawley rats (body weight: 150 to 200 g) are used. The animals are kept in Makrolon cages with up to 4 animals per cage (ambient temperature: 23° C., relative atmospheric humidity: 55%, fixed day/night rhythm [12/12 hours], standard diet: Altromin®). The rats are deprived of the feed 18 hours before the first sample of blood is taken. Water is available ad libitum. Samples of blood are taken from the postorbital plexus by puncture immediately before and 3 and 6 hours after administration of the substance.
After deproteinization with perchloric acid, the glucose in the blood is determined by means of the enzymatic HK/G-6-PDH method of R. Richterich [Klinische Chemie, Theorie und Praxis, (Clinical Chemistry, Theory and Practice), 3rd edition, 1971, S. Karger Verlag, Zurich-Basle, page 275]. A control group (treated with pure solvent) is also investigated in each case for comparison.

in vivo = details: mouse, po
Experimental: Column C provides data relating to acute toxicity (LD50; mice, peroral administration).
2. Determination of the toxicity-
Various doses of the substances (volume: 10 ml/kg) are administered orally by means of a stomach tube. The observation time is 7 days.

[2] = rats p.o., single dose, fasting, observed for 6 hours, with reference to control group, read-out: ED50 (15%): dose which effects a lowering of the blood glucose concentration by at least 15% in 50% of the animals
[3] = rats p.o., single dose, fasting, observed for 6 hours, with reference to control group, read-out: ED50 (25%): dose which effects a lowering of the blood glucose concentration by at least 25% in 50% of the animals

Row | SMILES | ED50 [1, 2] [mg/kg] | ED50 [1, 3] [mg/kg] | LD50 at 168 h (in vivo) [mg/kg] | ED50 ([1]; 6 h, read-out: ED50 (15%): dose which effects a lowering of the blood glucose concentration by at least 15% in 50% of the animals) [mg/kg] | ED50 ([1]; 6 h, read-out: ED50 (25%): dose which effects a lowering of the blood glucose concentration by at least 25% in 50% of the animals) [mg/kg]
1 | CCOC(=O)C1(CCCCCCOc2ccc(Cl)cc2)CO1 (stereo not drawn) [Serial No. 5, 2-[6-(4-Chlorophenoxy)hexyl]oxirane-2-carboxylic acid ethyl ester] | < 7 | 7 | 300 |  | 
2 | CCOC(=O)C1(CCCCOc2ccc(C)cc2)CO1 (stereo not drawn) [Serial No. 7, 2-[4-(4-Methylphenoxy)butyl]oxirane-2-carboxylic acid ethyl ester] | 8 | 19 |  |  | 
3 | CCCCNC(=N)NC(=N)N [Serial No. 1, Buformin, reference compound] |  |  |  | > 100 | 194
4 | CCOC(=O)C1(CCCCOc2cccc(C(F)(F)F)c2)CO1 (stereo not drawn) [Serial No. 4, 2-[4-(3-Trifluoromethylphenoxy)butyl]oxirane-2-carboxylic acid ethyl ester] | ~7 | 13 | 460 |  | 
5 | [H]/N=C(/N)N/C(=N/[H])NCCc1ccccc1 [Serial No. 2, Phenformin, reference compound] | > 150 | > 343 |  |  | 
6 | CCOC(=O)C1(CCCCOc2cccc(Cl)c2)CO1 (stereo not drawn) [Serial No. 3, 2-[4-(3-Chlorophenoxy)butyl]oxirane-2-carboxylic acid ethyl ester] | 3 | 24 | 390 |  | 
7 | CCOC(=O)C1(CCCCCOc2ccc(Cl)cc2)CO1 (stereo not drawn) [Serial No. 6, 2-[5-(4-Chlorophenoxy)pentyl]oxirane-2-carboxylic acid ethyl ester] | 5 | 6 | 310 |  | 

Source: patent US4337267A, “Phenalkoxyalkyl- and phenoxyalkyl-substituted oxiranecarboxylic acids, their use and medicaments containing them” (Byk Gulden Lomberg Chemische Fabrik GmbH, priority 1980, dated 1982)
